Results taken from patent US20080288176A1 (priority 2005, published 2008).

What was measured:
[1] = Serum nitrate concentration (NO release) after oral dosing; type: in vivo, rat; conditions: male Wistar rats, oral gavage, at 6 hours
Protocol: (§1) Table 1 is a summary of the protocol for a study which was conducted in male Wistar rats weighing 275-300 grams. The animals were allowed to acclimatize for at least five days prior to the commencement of the study. The study protocol was approved by the local animal ethics committee.
The animals were fasted overnight prior to test substance administration. The test substance was administered orally by gavage on the morning of the study day. All test animals had blood collected during the test period in both EDTA (ethylenediaminetetraacetic acid) tubes and SST (Serum Separator Tubes) at 1, 3 and 6 hours after dosing. Blood was collected into EDTA tubes only at 1 and 3 hours by tail tip amputation. Volume of blood collected was between 0.5 and 1 mL at each of these collections. The final collection was by puncture of the abdominal vena cava under isoflurane general anesthesia. Final blood collection was targeted as follows: 1st EDTA #1—1.5 mL; 2nd SST—1.5 mL; 3rd EDTA #2—as much as possible.
EDTA samples were centrifuged, and the plasma portion was collected and frozen at −80° C. SST samples were incubated at 37° C. for approximately 45 minutes, centrifuged, and the serum was collected and frozen at −80° C. until analysis.

[2] = Hydrolysis in rat intestinal microsomes; type: in vitro ADME; conditions: for intestinal microsomal activity: model input
Description: (§2) The physiologically based pharmacokinetic/pharmacodynamic model of the present invention contains a series of compartments that describe the time course of a nonsteroidal anti-inflammatory prodrug, its active metabolites and nitric oxide release in intestine, liver, kidneys, blood/plasma and heart after prodrug administration. The time course of the prodrug, its active metabolites and nitric oxide release can be simulated using a series of in vitro and in silico inputs. The stability of each component in the gastrointestinal lumen is estimated using data collected from artificial gastric and intestinal juice. Intestinal metabolism is estimated using intestinal microsomes and absorption rate is estimated using permeability data collected from a cell monolayer such as Caco-2. Hepatic elimination is estimated using liver microsomes and stability in plasma is calculated using degradation of each component in the media. Plasma protein binding can either be measured using a standardized in vitro method or it can be estimated using an in silico method. The distribution of each component in various parts of the body is estimated using an in silico method. The rate of nitric oxide release is estimated using an in vitro endothelial cell model. The time course of prodrug, its active metabolites and nitric oxide can be simulated in human and animal using this physiologically based pharmacokinetic/pharmacodynamic model provided that the corresponding in vitro and in silico data are used as inputs.
(§3) Representative in vitro tests or in silico estimates include: (a) pKa estimation or measurement; (b) Log P measurement or in silico estimation; (c) Solubility in various physiological fluids; (d) Permeability. Caco-2 and/or NOVOKIN's proprietary animal and human cell lines can be used to obtain this parameter; (e) Metabolic rate in the intestine and liver. Human or animal intestinal microsomes, S9 fraction, and cytosol can be used for this purpose. Human or animal hepatocytes, liver microsomes, S9 fraction, and cytosol can also be used; (f) Hydrolysis in human or animal plasma; (g) Serum or plasma protein binding. It can be measured in vitro or estimated in silico; (h) The rate of NO release; (i) Existing pharmacokinetic and pharmacodynamic data of NSAID or a biocompatible agent; (j) Existing NO release rate of known diazeniumdiolate if applicable; (k) Stability in gastric and intestinal environment; and (l) In silico volume of distribution estimation.
Whenever in vitro estimate is attainable, the in vitro results will be used, for example, plasma protein binding. Methods reported by Bowalgaha & Miners (2001), Martignoni et al. (2006), Tong et al. (2001) and Thulesen et al. (1999) were used for in vitro and in vivo scale-up for clearance in the intestine, absorption rate constant and hepatic clearance. The simulation begins with no material in all compartments except for the initial bolus in one compartment (typically the stomach compartment). The simulation then estimates the changing distribution of the material with time.

[3] = Hydrolysis in human liver microsomes; type: in vitro ADME; conditions: for liver microsomal activity: model input
Description: as §2, with “The” for “The physiologically based pharmacokinetic/pharmacodynamic model of the present invention contains a series of compartments that describe the time course of a nonsteroidal anti-inflammatory prodrug, its active metabolites and nitric oxide release in intestine, liver, kidneys, blood/plasma and heart after prodrug administration. The”
The selection of in vitro tests is designed to provide parameters for the above mentioned model. The use of an inappropriate test would result in wrong predictions.
as §3
The simulation begins with no material in all compartments except for the initial bolus in one compartment (typically the stomach compartment). The simulation then estimates the changing distribution of the material with time.

[4] = test system: cardiac tissue prostacyclin (PGI2) to thromboxane A2 (TXB2) ratio; assay: Cardiac tissue prostacyclin to thromboxane ratio; type: in vivo, rat; conditions: male Wistar rats; for Cardiac Tissue PGI2/TXB2, Mean: oral gavage, heart removed 6 hours after dosing
Description: Myocardial infarction and ischemic events in high risk patients led one of the most popular COX-2 inhibitors to its demise (Bresalier et al., 2005). Non-selective NSAIDS may also cause similar problems due to their ability to inhibit COX-2. […] Adenosine diphosphate (ADP) generation is an indicator of myocardial infarction which has no connection with the arachidonic acid cascade (Borna et al., 2005). […] Long term NSAID use has been linked to kidney damage and hypertension (Zafirovska et al., 1993). […] This was associated with an increase in the urine the ratio of alanine-amino-peptidase (AAP) and creatinine.
as §1
All rats were euthanized by removal of the heart 6 hours after initial dosing, following final blood collections. Immediately after terminal blood collections were complete, the thorax was opened and the heart removed. The heart was cut in half longitudinally. Half of the heart was placed in formalin for histological examination. The other half was quickly rinsed in saline and then freeze-clamped (crushed between the jaws of a pair of modified tongs, cooled by liquid nitrogen). An entire kidney was freeze-clamped. The other kidney was left in situ for examination by the pathologist. Freeze-clamped tissues were wrapped in labeled aluminum foil and stored in liquid nitrogen until they could be transferred to a −80° C. freezer. Freeze-clamped tissues were shipped on dry ice to NOVOKIN for analysis.

Compound	Serum Nitrate Concentrations, Mean [1]	intestinal molar percent conversion to Naproxen [2] [%]	intestinal microsomal activity [2] [mL/min/organ]	liver molar percent conversion to Naproxen [3] [%]	liver microsomal activity [3] [mL/min/organ]	Cardiac Tissue PGI2/TXB2, Mean [4]	PGI2/TXA2 ratio comparison (in words) ([4]; cardiac tissue)
COc1ccc2cc(C(C)C(=O)OCON=[N+]([O-])N3CCCC3)ccc2c1 (centres unmarked) [PYRO-NO-NAP, pyrrolidino-diazeniumdiolate-naproxen]	389.000	10	1	72	567000	4.937	–
COc1ccc2cc([C@H](C)C(=O)OCCCCO[N+](=O)[O-])ccc2c1 [AZD 3582]	460.667	–	0.09	–	118566	3.432	lower ratios than vehicle
